Data reported in US20030138390A1, “Use of alcohol dehydrogenase inhibitors for cosmetic treatment of keratinous materials” (priority 2000, published 2003).

Molecular target: T1, enzyme alcohol dehydrogenase (Saccharomyces cerevisiae, UniProt P00330)
T1 construct: purchased Sigma Diagnostics 333-B
T1 sequence (P00330 1-348): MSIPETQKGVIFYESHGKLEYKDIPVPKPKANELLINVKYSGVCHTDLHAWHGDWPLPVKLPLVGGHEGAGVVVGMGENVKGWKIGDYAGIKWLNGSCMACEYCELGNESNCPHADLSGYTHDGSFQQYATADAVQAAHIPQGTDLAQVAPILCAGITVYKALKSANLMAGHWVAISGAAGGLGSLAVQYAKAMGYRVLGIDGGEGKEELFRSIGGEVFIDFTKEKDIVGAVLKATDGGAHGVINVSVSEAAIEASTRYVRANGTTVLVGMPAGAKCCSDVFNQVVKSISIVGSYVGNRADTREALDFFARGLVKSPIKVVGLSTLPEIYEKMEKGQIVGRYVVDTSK
Test: Test of inhibition of the activity of the enzyme alcohol dehydrogenase (Sigma Diagnostics kit ref. 333-B)
Format: biochemical
Settings: inhibitor 10^-3 M in the final mixture; 10 μl ethanol solution 0.08% w/v; incubated 10 minutes at room temperature; reference = 100
Experimental: Test of Inhibition of the Activity of the Enzyme Alcohol Dehydrogenase
The inhibition of the activity of the enzyme alcohol dehydrogenase was determined using a Sigma Diagnostics kit (ref. 333-B).
3 ml of the Alcohol Reagent, 10 μl of ethanol solution (0.08% ethanol w/v ref. 330-20) and 10 μl of inhibitor solution in distilled water are incubated for 10 minutes at room temperature.
For each assay, a blank consisting of 3 ml of the Alcohol Reagent, 10 μl of distilled water and 10 μl of inhibitor solution in distilled water is prepared.
The inhibitors are diluted so as to be at a concentration of 10^−3 M in the final mixture.
After incubation of the mixture, 100 μl are taken up and read over a 10-minute interval at 340 nm. The readings are performed in 96-well UV microplates using a UV-visible multiwell spectrophotometer (Spectramax Plus—Molecular Devices) against the blank.
The inhibition results are expressed as a percentage of absorbance at 340 nm relative to a reference (no inhibitor in the mixture): […]

Structure (SMILES) | percentage of absorbance at 340 nm relative to a reference (no inhibitor in the mixture)
OCC(Cl)(Cl)Cl [2,2,2-Trichloroethanol] | -12%
CCn1nc(C)c(N)c1N [2-Ethyl-5-methyl-2H-3,4-diaminopyracole] | 31%
Cc1cn[nH]c1 [4-Methylpyrazole] | 35%
c1c[nH]cn1 [Imidazole] | 32%
c1cn[nH]c1 [Pyrazole] | 16%
